Converted amounts (≈) assume the structure as drawn. Where two headings read alike, the source gives them in different places.
What was measured:
[1] = biological target: T1, recombinant protein hGrx1-roGFP2 (Homo sapiens, UniProt P35754); experiment: in vitro interaction with recombinant redox probe; assay type: biochemical; conditions: 10 nM to 100 µM, 4 h and 24 h
T1 construct: made in house
Method: (2) Chromogenic precipitating substrates following a poly-condensation (so called “polymerization”) pathway, which is tuneable by utilizing metal catalytic effects via introduction of metal chelating groups.32-33 […]
Heterologous overexpression of hGrx1-roGFP2 and in vitro measurements with the recombinant protein were carried out as described45 with minor modifications. […] The emission of hGrx1-roGFP2 (510 nm) after excitation at 405 nm and 475 nm was measured in a plate reader (Clariostar, BMG Labtech) with optimal read settings. The ratio of the fluorescence […]
signals at 405/475 nm were calculated and plotted against time and/or concentration of compound 1o or redox active compounds. […]
100 µM for 4 h and 24 h incubations. Transfection of the Pf3D7 strain with the redox sensor was carried out, and the parasites were cultured as described under constant drug pressure with 5 nM WR99210 (Jacobus Pharmaceuticals, New Jersey, USA).45,46 P. falciparum trophozoites were enriched via magnet separation.47 Parasitemia was counted by using Giemsa-stained blood smears. […] (6-8% parasitemia) were magnetically enriched (Miltenyi Biotec, Germany), counted by using the improved Neubauer hemocytometer (Brand GmbH, Germany), and returned to cell culture (at 0.5 x 10^6 trophozoites/µl) for at least 1 h to recover. […]

[2] = aqueous kinetic solubility; assay type: physicochemical; conditions: kinetic from dmso stock
Method: (§1) Pharmacokinetic data were obtained for compound 1o at the Sanford-Burnham Medical Research Institute according to established procedures. Compound solubility in an aqueous solution was measured using an automated kinetic solubility method. The concentration of the compound in a saturated pH-buffered aqueous solution was determined via UV absorbance (250–498 nm) and compared with the spectra of a precipitation-free reference solution. The plasma stability of the compound was determined at a single concentration using species-specific plasma. The percentage of parent compound remaining after 3 h was determined via LC-MS/MS. The percentage of compound 1o bound to plasma proteins was determined through rapid equilibrium dialysis and quantified via LC-MS/MS. Metabolic stability of the compound was determined at a single concentration using species-specific liver microsomes that contained cytochrome P450s, flavin-monooxygenases, carboxyl-esterases, epoxide hydrolases, and other drug-metabolizing enzymes. The quantification was carried out via LC-MS/MS. Membrane permeability of compound 1o was measured using an in vitro model for the passive transport from the gastrointestinal tract into the blood system. A double-sink parallel artificial membrane permeability assay PAMPA, in a 96-well format was employed.

plasma stability = assay type: in vitro ADME; conditions: for remaining at 3 h: plasma, read-out: Plasma Stability % remaining after 3 h
Method: as §1

[3] = hepatic microsome stability; assay type: in vitro ADME; conditions: for remaining at 1 h: liver microsomes, read-out: Hepatic Microsome Stability % remaining after 1 h
Method: as §1

[4] = spectrophotometric titration by Fe(III); assay type: physicochemical; conditions: 0.2 M HEPES pH 7.5 + DMSO (1:1 v/v), 25.0 °C
Method: Supplementary Figure 17. (left) Spectrophotometric titration of the substrates 1o and 2o by Cu(II) and Fe(III) and (right) electronic spectra of the free substrates and of corresponding metal complexes. Solvent: 0.2 M aqueous sodium HEPES buffer pH 7.5 + DMSO (1:1 v/v); T = 25.0 […]
were prepared in CH3CN (5 mM). Haematin and the substrates were mixed together in […]
The absorption spectrophotometric […]
each addition of the substrate. […]
spectrophotometric data with the Specfit program. The uncertainties on the log K values are given as 3σ with σ = standard deviation. Origin 7.0 was used to process the analytical

Structure (SMILES) | direct interaction with recombinant hGrx1-roGFP2 [1] | solubility ([2]; Pion's buffer, aqueous buffer, pH 5.0, read-out: Aqueous Solubility (Pion's Buffer)) [µg/mL] | solubility ([2]; Pion's buffer, pH 6.2, aqueous buffer, read-out: Aqueous Solubility (Pion's Buffer)) [µg/mL] | solubility ([2]; Pion's buffer, pH 7.4, aqueous buffer, read-out: Aqueous Solubility (Pion's Buffer)) [µg/mL] | solubility kinetic ([2]; pH-buffered aqueous solution, aqueous buffer, across a range of pH) [µM] | solubility ([2]; pH-buffered aqueous solution, aqueous buffer, across a range of pH, read-out: aqueous solubility) [µg/mL] | Plasma Stability % remaining after 3 h (plasma stability; Human) [%] | Plasma Stability % remaining after 3 h (plasma stability; Mouse) [%] | remaining at 3 h (plasma stability; human) [%] | remaining at 3 h (plasma stability; mouse) [%] | Hepatic Microsome Stability % remaining after 1 h ([3]; Human) [%] | Hepatic Microsome Stability % remaining after 1 h ([3]; Mouse) [%] | remaining at 1 h ([3]; human) [%] | remaining at 1 h ([3]; mouse) [%] | log K2o.Fe [4]
COc1ccc2c(c1)CCC1C2CC[C@@]2(C)C1CC[C@H]2NCc1cc2ccccc2cc1O (stereo partly drawn) [1o] | No direct interaction was detected | 0.26 (≈ 0.589 µM) | 0.38 (≈ 0.86 µM) | 0.3 (≈ 0.679 µM) | < 2.3 | < 1 | 62 | 58 | 62.5 | 58.9 | ~38 | ~38 | 38.5 | 38.5 | 
COc1ccc2c(c1)CCC1C2CC[C@@]2(C)C1CC[C@@H]2NCc1cc2ccccc2cc1O (stereo partly drawn) [2o] |  |  |  |  |  |  |  |  |  |  |  |  |  |  | 4.3

Reference: PMC5321741, “Arylmethylamino steroids as antiparasitic agents” (Nature Communications, 2017)
